Results: PubChem BioAssay (NCI)
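Compound exposure: 48 hours, 5 concentrations, 96-well plates. At the TGI there is no net growth.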

How the values were obtained:
Experiment in all cases: growth of human tumour cells (NCI), 48 h
A549 NSCLC = test system: A549 NSCLC
ACHN renal = test system: ACHN renal
BT-549 breast = test system: BT-549 breast
CAKI-1 renal = test system: CAKI-1 renal
CCRF-CEM leukemia = test system: CCRF-CEM leukemia
COLO 205 colon = test system: COLO 205 colon
DU-145 prostate = test system: DU-145 prostate
EKVX NSCLC = test system: EKVX NSCLC
HCC-2998 colon = test system: HCC-2998 colon
HCT-116 colon = test system: HCT-116 colon
HOP-62 NSCLC = test system: HOP-62 NSCLC
HOP-92 NSCLC = test system: HOP-92 NSCLC
HS 578T breast = test system: HS 578T breast
HT29 colon = test system: HT29 colon
IGROV1 ovarian = test system: IGROV1 ovarian
K-562 leukemia = test system: K-562 leukemia
KM12 colon = test system: KM12 colon
LOX IMVI melanoma = test system: LOX IMVI melanoma
M14 melanoma = test system: M14 melanoma
MALME-3M melanoma = test system: MALME-3M melanoma
MCF7 breast = test system: MCF7 breast
MDA-MB-435 = test system: MDA-MB-435
MDA-N = test system: MDA-N
MOLT-4 leukemia = test system: MOLT-4 leukemia
NCI-H226 lung = test system: NCI-H226 lung
NCI-H23 lung = test system: NCI-H23 lung
NCI-H460 lung = test system: NCI-H460 lung
NCI-H522 lung = test system: NCI-H522 lung
NCI/ADR-RES ovarian = test system: NCI/ADR-RES ovarian
OVCAR-3 ovarian = test system: OVCAR-3 ovarian
OVCAR-4 ovarian = test system: OVCAR-4 ovarian
OVCAR-5 ovarian = test system: OVCAR-5 ovarian
OVCAR-8 ovarian = test system: OVCAR-8 ovarian
PC-3 prostate = test system: PC-3 prostate
RPMI-8226 leukemia = test system: RPMI-8226 leukemia
RXF 393 renal = test system: RXF 393 renal
SF-268 CNS = test system: SF-268 CNS
SF-295 CNS = test system: SF-295 CNS
SF-539 CNS = test system: SF-539 CNS
SK-MEL-2 melanoma = test system: SK-MEL-2 melanoma
SK-MEL-28 melanoma = test system: SK-MEL-28 melanoma
SK-MEL-5 melanoma = test system: SK-MEL-5 melanoma
SK-OV-3 ovarian = test system: SK-OV-3 ovarian
SN12C renal = test system: SN12C renal
SNB-19 CNS = test system: SNB-19 CNS
SNB-75 CNS = test system: SNB-75 CNS
SW-620 colon = test system: SW-620 colon
T-47D breast = test system: T-47D breast
TK-10 renal = test system: TK-10 renal
U251 CNS = test system: U251 CNS
UACC-257 melanoma = test system: UACC-257 melanoma
UACC-62 melanoma = test system: UACC-62 melanoma
UO-31 renal = test system: UO-31 renal
786-0 renal = test system: 786-0 renal
A498 renal = test system: A498 renal
HL-60(TB) leukemia = test system: HL-60(TB) leukemia
MDA-MB-231 breast = test system: MDA-MB-231 breast
SR leukemia = test system: SR leukemia

Measured: TGI

CC1(C(=O)O)CCC(C(=O)O)C(C)(C)O1 (configuration not stated)
not listed: 786-0 renal | A498 renal | HL-60(TB) leukemia | MDA-MB-231 breast | SR leukemia
> 100 µM: all other assays above

CC(=O)Oc1ccc2oc(=O)cc(C)c2c1
not listed: OVCAR-5 ovarian | PC-3 prostate | SK-OV-3 ovarian | UACC-62 melanoma
> 100 µM: all other assays above
